Here are results for one compound from US20250269072A1, “PROCESSES FOR PREPARING RADIOLABELLED CONJUGATES” (CENTENARY INSTITUTE OF CANCER MEDICINE AND CELL BIOLOGY, priority 2021, published 2025).

Series [1] in a line: Biodistribution in healthy male rats. Type of series: in vivo, rats (Lewis). The following applies: rat. As for the experimental part: Biodistribution was studied in ten healthy male rats (Lewis, Liverpool Hospital Animal Facility) aged 6-8 weeks. Five rats were administered with ^68Ga-NODAGA-GSAO. The rats were housed singly in a cage with impervious absorbent matting and at 1 hour post administration 5 rats were sacrificed by lethal carbon dioxide overdose. Immediately post mortem, blood was sampled via cardiac puncture. Two of the 5 rats were then imaged by PET CT (GE Discovery 710). The PET CT scan comprised a CT scan (80 kVp, 20 mA, helical mode, reconstructed slice thickness of 0.625 mm) followed by a PET scan (2 bed positions, 7.5 min/bed position, 256×256 reconstruction matrix, slice thickness 3.27 mm).
All of the rats were then dissected, organs sampled and weighed and counted in a gamma counter, and the cpm value converted to MBq using a known standard. The activity in the remaining carcass was measured in a dose calibrator.
Biodistribution studies were performed in a further 5 rats at two hours following ^68Ga-NODAGA GSAO administration.
Injected activity was corrected by measuring residual activity left in the syringe after injection in a dose calibrator. To correct for any dose extravasated at the injection site the tail was harvested and the activity in the tail was subtracted from the administered activity. All calculations were decayed corrected using the injection time as the reference.
Biodistribution was expressed as % ID/g and % ID/organ. % retained activity was the sum total of all activity in all individually harvested organs as well as the activity in the remaining carcass as a percentage of the injected dose. % recovered activity was the sum total of all activity in all individually harvested organs as well as the activity in the remaining carcass and excreted activity in the impervious matting as a percentage of the injected dose.

Series [2] in a line: In-human study of ^68Ga-CDI: biodistribution (PET CT, blood, urine). The class given is in vivo. As for the experimental part:
Subjects were encouraged to be well orally hydrated prior to ^68Ga-CDI administration, otherwise there was no preparation required. Two intravenous cannulas were placed (one for administration of ^68Ga-CDI and the other blood sampling during the study). Immediately prior to ^68Ga-CDI administration clinical assessment of participants was performed, vital signs (blood pressure, heart rate, respiratory rate, arterial oxygen saturation and temperature) measured and a 12-lead electrocardiogram (ECG) obtained and QTc calculated according to Bazett's formula to confirm eligibility. ^68Ga-CDI was administered as an intravenous bolus.
Eight serial PET scans were then performed from skull vertex to the proximal femora. The first PET scan commenced immediately following administration of ^68Ga-CDI, with subsequent scans commencing at approximately 7, 17, 29, 47, 64, 120 and 180 minutes after administration (+/−5 minutes). All scans were performed on a Phillips ingenuity TF 128 PET CT scanner (Philips Medical Systems, Cleveland) with acquisition times increasing for each subsequent scan ranging from 30 s/bed (immediately after administration) to 240 s/bed (at 180 minutes after administration) to compensate for excretion and decay. All PET scans were reconstructed using CT attenuation correction with a time of flight, list-mode, blob-based, ordered subsets maximum likelihood expectation maximization algorithm (BLOB-OS-TF) (reconstructed voxel size 4×4×4 mm).
Immediately prior to the scan commencing at approximately 47 minutes post administration a low-dose, non-contrast CT of the same region was performed for attenuation correction and localisation (of the first six scans during which time the patient had not moved) (44-120 mAs, 120-140 kV adjusted for body weight and body mass index, iDose 3 iterative reconstruction, reconstructed voxel size 1.17×1.17×3 mm). Ultra-low dose non-contrast CT (25 mAs, 100 kV, filtered back projection reconstruction, reconstructed voxel size 1.17×1.17×3 mm) was performed for attenuation correction immediately prior to the 120 minute and 180 minute PET scans.
During and immediately following completion of the scanning protocol, subjects were clinically assessed for adverse reactions and vital signs measured. Blood was collected for venous radioactivity measurements at 1, 2 and 3 hours following ^68Ga-CDI administration. Subjects were asked to void between 1.5 to 2 h and 2.75 to 3 h after ^68Ga-CDI administration, urine collected, the volume measured, and an aliquot counted in a gamma counter to determine activity concentration. Following completion of the scanning protocol, ECG was recorded, and blood collected for biochemical and haematological assessment.
For analysis of uptake and biodistribution in normal tissues and organs, spherical volumes of interest (VOIs) were drawn on the Digital Imaging and Communications in Medicine (DICOM) ^68Ga-CDI-PET emission data on a workstation (IntelliSpace Portal, V5.0.2.60000, Philips Medical System, Best, The Netherlands) by an experienced nuclear medicine physician over clearly tumor-free regions of organs. VOI diameter varied depending on organ size but where possible was at least 10 mm. Spherical VOIs were also drawn over all tumor deposits greater than 10 mm in diameter. These VOIs were replicated across all time points and the mean, maximum and standard deviation of the activity concentration (Bq/mL) of all VOIs at each time point was recorded. Activity concentration was used to calculate the % injected activity (% IA) for organs and tissues based on the masses of source organs for standard phantom male and female models (Stabin & Siegel, Health Phys. 2003; 85:294-310). Mean, maximum and standard deviation of the SUV for each VOI was also a calculated from the activity concentration using the slope intercept stored with the DICOM CDI PET emission data.

As to `O=C(O)CNC(=O)[C@H](CSCC(=O)Nc1ccc([As](O)O)cc1)NC(=O)CC[C@H](NC(=O)CCC1C(=O)[O][68Ga]2[O]C(=O)CN3CCN(CCN1CC3)CC(=O)[O]2)C(=O)O` (some centres unmarked) [^68Ga-NODAGA-GSAO], the “injected activity retained within the animal” value in series [1] (1 hour) amounted to 32.4%; in series [1] (2 hours), 21.4%. For the same compound, the “mean total recovered activity” value in series [1] (1 hour) is listed as 84.9 % of injected activity. The total recovered activity in series [1] (2 hours) is on record as 75.3 % of injected activity. Besides, the “activity remaining in the blood pool, average” value worked out at 12.2 % IA in series [2] (1 hour), 8.8 % IA in series [2] (2 hours) and 7.7 % IA in series [2] (3 hours). Moreover, the “average SUV kidneys” value in series [2] (1 hour post injection) is on record as 5.3 SUV; in series [2] (2 hours post injection), 4.9 SUV; in series [2] (3 hours post injection), 4.0 SUV. For the same compound, the “total activity excreted in urine” value in series [2] (by 90 minutes) was 39±18%.
